{"source": "patent US10105365B2", "about": "“Solid antiviral dosage forms” (AbbVie Inc., priority 2014, dated 2018)", "key": {"[1]": {"experiment": "Sink Conditions dissolution testing of Formulation C5-12", "type": "physicochemical", "details": "N = 6", "experimental": "The release profiles of Formulation C5-12 of Example 1 were evaluated in a Sink Conditions dissolution study. The study was conducted in 900 mL of dissolution medium using a standard USP dissolution Apparatus 2 (paddle) operating at 100 RPM at 37±0.5° C. The dissolution medium was a 0.05 M sodium phosphate buffer pH 6.8 with 15 mM cTAB as a surfactant."}, "[2]": {"experiment": "Human pharmacokinetic study, Example 4 Arm II (single dose, crossover)", "type": "in vivo", "details": "human, in vivo", "experimental": "Formulation C5-12 and a second formulation were tested in Arm II of the study. Adult male and female subjects (N=30 for combined Arm I and Arm II studies) in general good health were selected to participate in the study according to the selection criteria. Subjects meeting the selection criteria were randomly assigned to one of the Regimen sequences as shown below in Table 4-A.\nStudy drug was administered as provided below in Table 4-B.\nEach study regimen was taken orally with approximately 240 mL of water approximately 30 minutes after the start of standardized breakfast. Study regimens were administered orally in the morning on Study Day 1 of each period. For Regimen A the evening dose of the Single Tablet was taken orally with approximately 240 mL of water approximately 30 minutes after the start of the evening snack. Serial blood samples for pharmacokinetic analysis were collected 72 hours after dosing in each period.\nThe data presented in Tables 4-C through 4-G are preliminary data and are subject to database lock and final data verification."}, "[3]": {"experiment": "Human pharmacokinetic study, Example 4 Arm III (14-day multiple dose, steady state)", "type": "in vivo"}, "[4]": {"experiment": "Human pharmacokinetic study, Example 5 Arm I (single dose, replicated crossover)", "type": "in vivo", "details": "single dose, non-fasting", "experimental": "(§1) A Phase 1, non-fasting, open-label, two-arm, four-period, randomized, crossover study was conducted to compare and characterize the pharmacokinetics of (i) Triple Tablet when co-administered with Single Tablet, and (ii) Formulation C5-12 as discussed below. Part 1 was a single dose, two-treatment, randomized, four period, two sequence replicated crossover study with 88 subjects. Doses in the four periods were separated by at least 10 days. Part 2 was a multiple-dose, two-treatment, two period, randomized crossover study with 66 subjects. Dosing in each period was 14 days and doses in the two periods were separated by at least 10 days.\n(§2) Adult male and female subjects in general good health were selected to participate in the study according to the selection criteria. Subjects meeting the selection criteria were randomly assigned to one of the sequences of Regimens A and B (four sequences for Arm I and two sequences for Arm II) as shown below in Table 5-A.\n(§3) Study drug was administered as provided below in Table 5-B.\n(§4) Each study regimen was taken orally with approximately 240 mL of water approximately 30 minutes after the start of standardized breakfast. Study regimens were administered orally in the morning on Study Day 1 of each period. Serial blood samples for pharmacokinetic analysis were collected 72 hours after dosing in each period.\nTables 5-C, 5-D, 5-E, and 5-F below report the Arm I pharmacokinetic data for Formulation C5-12 (separately reported for each of Compounds 1, 2, 3, and 4). Table 5-G presents the results of a relative bioavailability and 90% confidence interval analysis of the pharmacokinetic data for Formulation C5-12 relative to the reference regimen. The data presented in Tables 5-C through 5-G are preliminary data and are subject to database lock and final data verification by the statistician."}, "[5]": {"experiment": "Human pharmacokinetic study, Example 5 Arm II (multiple dose, crossover)", "type": "in vivo", "details": "in vivo", "experimental": "as §1, §2, §3, §4"}, "[6]": {"experiment": "Solubility (general statement)", "type": "physicochemical", "details": "aqueous"}, "[7]": {"details": "Formulation C5-12, Day 14 versus Day 1"}, "[8]": {"details": "human, in vivo, oral, 3 Formulation C5-12 tablets daily, three Formulation C5-12 tablets daily for 14 days, non-fasting, Day 14, N = 14"}, "[9]": {"details": "three Formulation C5-12 tablets daily for 14 days, non-fasting, Day 1, N = 14"}, "[10]": {"details": "Regimen B (reference regimen): two Triple Tablets + one Single Tablet morning, one Single Tablet evening, N = 171"}}, "note": "Like-named read-outs stand apart in the source and are kept apart here."}
{"molecule": "COC(=O)N[C@H](C(=O)N1CCC[C@H]1C(=O)Nc1ccc([C@@H]2CC[C@@H](c3ccc(NC(=O)[C@@H]4CCCN4C(=O)[C@@H](NC(=O)OC)C(C)C)cc3)N2c2ccc(C(C)(C)C)cc2)cc1)C(C)C", "note": "[Compound 2]", "values": [{"measurement": "% Released", "setting": "[1]; 1 hour, 900 mL 0.05 M sodium phosphate buffer pH 6.8, 15 mM cTAB, USP Apparatus 2, 100 RPM, 37 °C", "value": 55, "unit": "%"}, {"measurement": "% Released", "setting": "[1]; 4 hours, pH 6.8 buffer, 15 mM cTAB", "value": 98, "unit": "%"}, {"measurement": "% Released", "setting": "[1]; 6 hours, pH 6.8 buffer, 15 mM cTAB", "value": 99, "unit": "%"}, {"measurement": "% Released", "setting": "[1]; 8 hours, pH 6.8 buffer, 15 mM cTAB", "value": 103, "unit": "%"}, {"measurement": "% Released", "setting": "[1]; 12 hours, pH 6.8 buffer, 15 mM cTAB", "value": 102, "unit": "%"}, {"measurement": "% Released", "setting": "[1]; 16 hours, pH 6.8 buffer, 15 mM cTAB", "value": 102, "unit": "%"}, {"measurement": "AUCt, geometric mean", "setting": "[2]; both", "value": 1510, "unit": "ng·h/mL"}, {"measurement": "AUC∞, geometric mean", "setting": "[2]; both", "value": 1670, "unit": "ng·h/mL"}, {"measurement": "Cmax, geometric mean", "setting": "[2]; both", "value": 117, "unit": "ng/mL"}, {"measurement": "Tmax", "setting": "[2]; both", "value": 5.2, "unit": "h"}, {"measurement": "t1/2", "setting": "[2]; both", "value": 23.2, "unit": "h"}, {"measurement": "C24, arithmetic mean, % CV", "setting": "[2]; both, 24 h", "value": "(19.4, 29) ng/mL"}, {"measurement": "C24, geometric mean", "setting": "[2]; both, 24 h", "value": 18.7, "unit": "ng/mL"}, {"measurement": "AUCt, arithmetic mean, % CV", "setting": "[2]", "value": "(1560, 25) ng · h/mL"}, {"measurement": "AUC∞, arithmetic mean, % CV", "setting": "[2]", "value": "(1740, 29) ng · h/mL"}, {"measurement": "Cmax, arithmetic mean, % CV", "setting": "[2]", "value": "(122, 31) ng/mL"}, {"measurement": "Relative bioavailability, AUCinf, point estimate", "setting": "[2]", "value": 1.022}, {"measurement": "Relative bioavailability, Cmax, point estimate", "setting": "[2]", "value": 1.038}, {"measurement": "AUC24, RATIO", "setting": "[3]; [7]", "value": 1.34}, {"measurement": "C24, RATIO", "setting": "[3]; [7]", "value": 1.72}, {"measurement": "Cmax, RATIO", "setting": "[3]; [7]", "value": 1.10}, {"measurement": "Tmax", "setting": "[3]; human, in vivo, oral, 3 Formulation C5-12 tablets daily, three Formulation C5-12 tablets daily for 14 days, non-fasting, Day 1, N = 14", "value": 5.5, "unit": "h"}, {"measurement": "concentration at 24 h", "setting": "[3]; human, in vivo, oral, 3 Formulation C5-12 tablets daily, three Formulation C5-12 tablets daily for 14 days, non-fasting, Day 1, N = 14, read-out: C24, geometric mean", "value": 23.4, "unit": "ng/mL"}, {"measurement": "Tmax", "setting": "[3]; [8]", "value": 5.6, "unit": "h"}, {"measurement": "half-life", "setting": "[3]; [8]", "value": 29.8, "unit": "h"}, {"measurement": "AUC", "setting": "[3]; human, in vivo, oral, 3 Formulation C5-12 tablets daily, three Formulation C5-12 tablets daily for 14 days, non-fasting, Day 14, N = 14, read-out: AUC24, geometric mean", "value": 1720, "unit": "ng·h/mL"}, {"measurement": "concentration at 24 h", "setting": "[3]; human, in vivo, oral, 3 Formulation C5-12 tablets daily, three Formulation C5-12 tablets daily for 14 days, non-fasting, Day 14, N = 14, read-out: C24, geometric mean", "value": 40.2, "unit": "ng/mL"}, {"measurement": "Cmax", "setting": "[3]; human, in vivo, oral, 3 Formulation C5-12 tablets daily, three Formulation C5-12 tablets daily for 14 days, non-fasting, Day 14, N = 14, read-out: Cmax, geometric mean", "value": 135, "unit": "ng/mL"}, {"measurement": "AUC24, geometric mean", "setting": "[3]; [9]", "value": 1280, "unit": "ng·h/mL"}, {"measurement": "Cmax, geometric mean", "setting": "[3]; [9]", "value": 123, "unit": "ng/mL"}, {"measurement": "β", "setting": "[3]; three Formulation C5-12 tablets daily for 14 days, non-fasting, Day 14, N = 14", "value": 0.023, "unit": "h⁻¹"}, {"measurement": "half-life", "setting": "[4]; both sexes, human, blood, oral, 3 film-coated Formulation C5-12 tablets, Regimen A (C5-12): three film-coated Formulation C5-12 tablets, N = 172", "value": 37.9, "unit": "h"}, {"measurement": "AUC(0-t)", "setting": "[4]; both sexes, human, blood, oral, 3 film-coated Formulation C5-12 tablets, Regimen A (C5-12): three film-coated Formulation C5-12 tablets, N = 172, read-out: AUCt, geometric mean", "value": 1660, "unit": "ng·h/mL"}, {"measurement": "AUC(0-inf)", "setting": "[4]; both sexes, human, blood, oral, 3 film-coated Formulation C5-12 tablets, Regimen A (C5-12): three film-coated Formulation C5-12 tablets, N = 172, read-out: AUC∞, geometric mean", "value": 1800, "unit": "ng·h/mL"}, {"measurement": "Tmax", "setting": "[4]; both sexes, human, blood, oral, 3 film-coated Formulation C5-12 tablets, Regimen A (C5-12): three film-coated Formulation C5-12 tablets, N = 172, read-out: Tmax, first value (geometric mean)", "value": 5, "unit": "h"}, {"measurement": "AUC(0-t)", "setting": "[4]; both sexes, human, blood, oral, Regimen B (reference regimen): two Triple Tablets + one Single Tablet morning, one Single Tablet evening, N = 171, read-out: AUCt, geometric mean", "value": 1630, "unit": "ng·h/mL"}, {"measurement": "AUC(0-inf)", "setting": "[4]; both sexes, human, blood, oral, Regimen B (reference regimen): two Triple Tablets + one Single Tablet morning, one Single Tablet evening, N = 171, read-out: AUC∞, geometric mean", "value": 1760, "unit": "ng·h/mL"}, {"measurement": "Tmax", "setting": "[4]; both sexes, human, blood, oral, Regimen B (reference regimen): two Triple Tablets + one Single Tablet morning, one Single Tablet evening, N = 171, read-out: Tmax, first value (geometric mean)", "value": 5, "unit": "h"}, {"measurement": "Cmax, geometric mean", "setting": "[4]; Regimen A (C5-12): three film-coated Formulation C5-12 tablets, N = 172", "value": 124, "unit": "ng/mL"}, {"measurement": "Cmax, geometric mean", "setting": "[4]; [10]", "value": 131, "unit": "ng/mL"}, {"measurement": "t1/2", "setting": "[4]; [10]", "value": 39.2, "unit": "h"}, {"measurement": "Exposures versus the reference regimen", "setting": "[5]", "value": "bioequivalent"}, {"measurement": "Relative bioavailability, AUC24, point estimate", "setting": "[5]", "value": 1.098}, {"measurement": "Relative bioavailability, AUCt, point estimate", "setting": "[5]", "value": 1.091}, {"measurement": "Relative bioavailability, Cmax, point estimate", "setting": "[5]", "value": 1.087}, {"measurement": "Solubility", "setting": "[6]", "value": "low solubility"}]}
